# Data published in patent US9661853B2, “Molecules having pesticidal utility, and intermediates, compositions, and processes, related thereto” (Dow AgroSciences LLC, priority 2015, dated 2017).
# Columns and labels:
# [1] = test system: Cabbage Looper (Trichoplusia ni, TRIPNI); assay: Bioassay on Cabbage Looper (CL), 128-well diet tray assay; assay type: in vivo; details: 168 h, 50 μg/cm^2 on artificial diet, second instar larvae, 25° C., five to seven days, average of eight wells, read-out: CL % Control (or Mortality) rating
# Procedure: (§1) Bioassays on Beet Armyworm (Spodoptera exigua, LAPHEG) (“BAW”) and Cabbage Looper (Trichoplusia ni, TRIPNI) (“CL”)
# (§2) Certain molecules disclosed in this document were tested against BAW and CL using procedures described in the following examples. In the reporting of the results, the “BAW & CL Rating Table” was used (See Table Section).
# Bioassays on CL were conducted using a 128-well diet tray assay. One to five second instar CL larvae were placed in each well (3 mL) of the diet tray that had been previously filled with 1 mL of artificial diet to which 50 μg/cm^2 of the test molecule (dissolved in 50 μL of 90:10 acetone-water mixture) had been applied (to each of eight wells) and then allowed to dry. Trays were covered with a clear self-adhesive cover, vented to allow gas exchange, and held at 25° C., 14:10 light-dark for five to seven days. Percent mortality was recorded for the larvae in each well; activity in the eight wells was then averaged. The results are indicated in the table entitled “Table ABC: Biological Results” (See Table Section).
# [2] = test system: Beet Armyworm (Spodoptera exigua, LAPHEG); assay: Bioassay on Beet Armyworm (BAW), 128-well diet tray assay; assay type: in vivo; details: 168 h, 50 μg/cm^2 on artificial diet, second instar larvae, 25° C., five to seven days, average of eight wells, read-out: BAW % Control (or Mortality) rating
# Procedure: as §1, §2
# Bioassays on BAW were conducted using a 128-well diet tray assay. One to five second instar BAW larvae were placed in each well (3 mL) of the diet tray that had been previously filled with 1 mL of artificial diet to which 50 μg/cm^2 of the test molecule (dissolved in 50 μL of 90:10 acetone-water mixture) had been applied (to each of eight wells) and then allowed to dry. Trays were covered with a clear self-adhesive cover, vented to allow gas exchange, and held at 25° C., 14:10 light-dark for five to seven days. Percent mortality was recorded for the larvae in each well; activity in the eight wells was then averaged. The results are indicated in the table entitled “Table ABC: Biological Results” (See Table Section).
Compound,melting point [°C],mortality at 50 µg/cm2 [1] [%],mortality at 50 µg/cm2 [2] [%]
Cc1ccc(C(C)C)c(N2C(=O)CS/C2=N\C(=O)Nc2ccc(CNc3ncn(-c4ccc(OC(F)(F)F)cc4)n3)cc2F)c1,236 to 238,,
CCCc1ccc(C)cc1N1C(=O)CS/C1=N\C(=O)Nc1ccc(CN(C)c2ncn(-c3ccc(OC(F)(F)F)cc3)n2)cc1F,174 to 176,,
COCc1ccc(C)cc1N1C(=O)CS/C1=N\C(=O)Nc1ccc(CNc2ncn(-c3ccc(OC(F)(F)F)cc3)n2)cc1F,205 to 207,,
"Cc1ccc(C(C)C)c(N2C(=O)CS/C2=N\C(=O)Nc2ccc(NCc3ncn(-c4ccc(OC(F)(F)F)cc4)n3)cc2)c1 [F28, (Z)-1-(3-(2-isopropyl-5-methylphenyl)-4-oxothiazolidin-2-ylidene)-3-(4-(((1-(4-(trifluoromethoxy)phenyl)-1H-1,2,4-triazol-3-yl)methyl)amino)phenyl)urea]",,50 to 100,50 to 100
"CCCc1ccc(C)cc1N1C(=O)CS/C1=N\C(=O)Nc1ccc(NCc2ncn(-c3ccc(OC(F)(F)F)cc3)n2)cc1 [F29, (Z)-1-(3-(5-Methyl-2-propylphenyl)-4-oxothiazolidin-2-ylidene)-3-(4-(((1-(4-(trifluoromethoxy)phenyl)-1H-1,2,4-triazol-3-yl)methyl)amino)phenyl)urea]",,50 to 100,50 to 100
"COCc1ccc(C)cc1N1C(=O)CS/C1=N\C(=O)Nc1ccc(NCc2ncn(-c3ccc(OC(F)(F)F)cc3)n2)cc1 [F30, (Z)-1-(3-(2-(Methoxymethyl)-5-methylphenyl)-4-oxothiazolidin-2-ylidene)-3-(4-(((1-(4-(trifluoromethoxy)phenyl)-1H-1,2,4-triazol-3-yl)methyl)amino)phenyl)urea]",,50 to 100,50 to 100
"Cc1ccc(C(C)C)c(N2C(=O)CS/C2=N\C(=O)Nc2ccc(NCc3ncn(-c4ccc(OC(F)(F)F)cc4)n3)cc2F)c1 [F31, (Z)-1-(2-Fluoro-4-(((1-(4-(trifluoromethoxy)phenyl)-1H-1,2,4-triazol-3-yl)methyl)amino)phenyl)-3-(3-(2-isopropyl-5-methylphenyl)-4-oxothiazolidin-2-ylidene)urea]",,50 to 100,50 to 100
"CCCc1ccc(C)cc1N1C(=O)CS/C1=N\C(=O)Nc1ccc(NCc2ncn(-c3ccc(OC(F)(F)F)cc3)n2)cc1F [F32, (Z)-1-(2-Fluoro-4-(((1-(4-(trifluoromethoxy)phenyl)-1H-1,2,4-triazol-3-yl)methyl)amino)phenyl)-3-(3-(5-methyl-2-propylphenyl)-4-oxothiazolidin-2-ylidene)urea]",,50 to 100,50 to 100
"COCc1ccc(C)cc1N1C(=O)CS/C1=N\C(=O)Nc1ccc(NCc2ncn(-c3ccc(OC(F)(F)F)cc3)n2)cc1F [F33, (Z)-1-(2-Fluoro-4-(((1-(4-(trifluoromethoxy)phenyl)-1H-1,2,4-triazol-3-yl)methyl)amino)phenyl)-3-(3-(2-(methoxymethyl)-5-methylphenyl)-4-oxothiazolidin-2-ylidene)urea]",,50 to 100,50 to 100
"Cc1ccc(C(C)C)c(N2C(=O)CS/C2=N\C(=O)Nc2ccc(NCc3ncn(-c4ccc(OC(F)(F)F)cc4)n3)c(F)c2)c1 [F34, (Z)-1-(3-Fluoro-4-(((1-(4-(trifluoromethoxy)phenyl)-1H-1,2,4-triazol-3-yl)methyl)amino)phenyl)-3-(3-(2-isopropyl-5-methylphenyl)-4-oxothiazolidin-2-ylidene)urea]",,50 to 100,50 to 100
"CCCc1ccc(C)cc1N1C(=O)CS/C1=N\C(=O)Nc1ccc(NCc2ncn(-c3ccc(OC(F)(F)F)cc3)n2)c(F)c1 [F35, (Z)-1-(3-Fluoro-4-(((1-(4-(trifluoromethoxy)phenyl)-1H-1,2,4-triazol-3-yl)methyl)amino)phenyl)-3-(3-(5-methyl-2-propylphenyl)-4-oxothiazolidin-2-ylidene)urea]",,50 to 100,50 to 100
"COCc1ccc(C)cc1N1C(=O)CS/C1=N\C(=O)Nc1ccc(NCc2ncn(-c3ccc(OC(F)(F)F)cc3)n2)c(F)c1 [F36, (Z)-1-(3-Fluoro-4-(((1-(4-(trifluoromethoxy)phenyl)-1H-1,2,4-triazol-3-yl)methyl)amino)phenyl)-3-(3-(2-(methoxymethyl)-5-methylphenyl)-4-oxothiazolidin-2-ylidene)urea]",,50 to 100,50 to 100
"COc1cc(NC(=O)/N=C2\SCC(=O)N2c2cc(C)ccc2C(C)C)ccc1NCc1ncn(-c2ccc(OC(F)(F)F)cc2)n1 [F37, (Z)-1-(3-(2-Isopropyl-5-methylphenyl)-4-oxothiazolidin-2-ylidene)-3-(3-methoxy-4-(((1-(4-(trifluoromethoxy)phenyl)-1H-1,2,4-triazol-3-yl)methyl)amino)phenyl)urea]",,50 to 100,50 to 100
"CCCc1ccc(C)cc1N1C(=O)CS/C1=N\C(=O)Nc1ccc(NCc2ncn(-c3ccc(OC(F)(F)F)cc3)n2)c(OC)c1 [F38, (Z)-1-(3-Methoxy-4-(((1-(4-(trifluoromethoxy)phenyl)-1H-1,2,4-triazol-3-yl)methyl)amino)phenyl)-3-(3-(5-methyl-2-propylphenyl)-4-oxothiazolidin-2-ylidene)urea]",,50 to 100,50 to 100
"COCc1ccc(C)cc1N1C(=O)CS/C1=N\C(=O)Nc1ccc(NCc2ncn(-c3ccc(OC(F)(F)F)cc3)n2)c(OC)c1 [F39, (Z)-1-(3-Methoxy-4-(((1-(4-(trifluoromethoxy)phenyl)-1H-1,2,4-triazol-3-yl)methyl)amino)phenyl)-3-(3-(2-(methoxymethyl)-5-methylphenyl)-4-oxothiazolidin-2-ylidene)urea]",,50 to 100,50 to 100
"Cc1ccc(C(C)C)c(N2C(=O)CS/C2=N\C(=O)Nc2ccc(NCc3ncn(-c4ccc(OC(F)(F)F)cc4)n3)cc2Cl)c1 [F40, (Z)-1-(2-Chloro-4-(((1-(4-(trifluoromethoxy)phenyl)-1H-1,2,4-triazol-3-yl)methyl)amino)phenyl)-3-(3-(2-isopropyl-5-methylphenyl)-4-oxothiazolidin-2-ylidene)urea]",,50 to 100,50 to 100
"CCCc1ccc(C)cc1N1C(=O)CS/C1=N\C(=O)Nc1ccc(NCc2ncn(-c3ccc(OC(F)(F)F)cc3)n2)cc1Cl [F41, (Z)-1-(2-Chloro-4-(((1-(4-(trifluoromethoxy)phenyl)-1H-1,2,4-triazol-3-yl)methyl)amino)phenyl)-3-(3-(5-methyl-2-propylphenyl)-4-oxothiazolidin-2-ylidene)urea]",,50 to 100,50 to 100
"COCc1ccc(C)cc1N1C(=O)CS/C1=N\C(=O)Nc1ccc(NCc2ncn(-c3ccc(OC(F)(F)F)cc3)n2)cc1Cl [F42, (Z)-1-(2-Chloro-4-(((1-(4-(trifluoromethoxy)phenyl)-1H-1,2,4-triazol-3-yl)methyl)amino)phenyl)-3-(3-(2-(methoxymethyl)-5-methylphenyl)-4-oxothiazolidin-2-ylidene)urea]",,50 to 100,50 to 100
"Cc1ccc(C(C)C)c(N2C(=O)CS/C2=N\C(=O)Nc2ccc(NCc3ncn(-c4ccc(OC(F)(F)F)cc4)n3)c(Cl)c2)c1 [F43, (Z)-1-(3-Chloro-4-(((1-(4-(trifluoromethoxy)phenyl)-1H-1,2,4-triazol-3-yl)methyl)amino)phenyl)-3-(3-(2-isopropyl-5-methylphenyl)-4-oxothiazolidin-2-ylidene)urea]",,50 to 100,50 to 100
"CCCc1ccc(C)cc1N1C(=O)CS/C1=N\C(=O)Nc1ccc(NCc2ncn(-c3ccc(OC(F)(F)F)cc3)n2)c(Cl)c1 [F44, (Z)-1-(3-Chloro-4-(((1-(4-(trifluoromethoxy)phenyl)-1H-1,2,4-triazol-3-yl)methyl)amino)phenyl)-3-(3-(5-methyl-2-propylphenyl)-4-oxothiazolidin-2-ylidene)urea]",,50 to 100,50 to 100
"Cc1ccc(C(C)C)c(N2C(=O)CS/C2=N\C(=O)Nc2ccc(NCc3ncn(-c4ccc(OC(F)(F)F)cc4)n3)nc2)c1 [F46, (Z)-1-(3-(2-isopropyl-5-methylphenyl)-4-oxothiazolidin-2-ylidene)-3-(6-(((1-(4-(trifluoromethoxy)phenyl)-1H-1,2,4-triazol-3-yl)methyl)amino)pyridin-3-yl)urea]",,50 to 100,50 to 100
"Cc1ccc(C(C)C)c(N2C(=O)CS/C2=N\C(=O)Nc2ccc(NCc3ncn(-c4ccc(OC(F)(F)F)cc4)n3)cn2)c1 [F47, (Z)-1-(3-(2-isopropyl-5-methylphenyl)-4-oxothiazolidin-2-ylidene)-3-(5-(((1-(4-(trifluoromethoxy)phenyl)-1H-1,2,4-triazol-3-yl)methyl)amino)pyridin-2-yl)urea]",,50 to 100,50 to 100
